Test results as given in patent publication US20150023920A1, “NOVEL COMPOSITIONS AND METHODS FOR PREVENTING OR TREATING CANCER METASTASIS” (Drexel University, priority 2012, published 2015).
“Also recorded” adds a separate entry of the source.

Columns and labels:
[1] = system: COX-2 expression in human bone Mesenchymal Stem Cells (MSCs); experiment: COX-2 expression in human MSCs exposed to PC3-ML conditioned medium (Western blot); type: cell-based; conditions: Anakinra 10 μg/ml pre-treatment 30 minutes; MSCs exposed 48 hours to PC3-ML conditioned medium
Procedure: Bone marrow-derived Human Mesenchymal Stem cells (MSCs) (Lonza, Allendale, N.J.) were used between passage 5 and 8 and cultured in MSC growth medium (α-MEM (Invitrogen) supplemented with 10% FBS, 1 ng/ml bFGF (R&D Systems, Minneapolis, Minn.), and 0.1% gentamicin).
(§1) Cell lysates were obtained and SDS-PAGE and Western Blot analysis performed as previously described, with few modifications. Membranes were blotted with antibodies targeting PDGFRα, PDGFRβ, IL1-β (SC-7884, Santa Cruz, Dallas, Tex.), Actin (A-2066, Sigma-Aldrich, St. Louis, Mo.), COX-2 (ab15191, AbCam, Cambridge, UK) Elafin (SC-20637, Santa Cruz) and GAPDH (DI6H11, Cell Signaling Technology, Beverly, Mass.). Primary antibody binding was detected using an HRP-conjugated secondary antibody (Pierce). Chemiluminescence signals were obtained using SuperSignal West Femto reagents (Pierce) and detected with the Fluorochem 8900 imaging system and relative software (Alpha Innotech).
Conditioned media were obtained according to Li et al., 2012, Cancer Disc. 2:840-55. In brief, 7.5×10^5 PC3-ML cells were plated in 15 ml of DMEM supplemented with 10% fetal bovine serum and 0.1% gentamicin and cultured for five days. The medium from each dish was then collected and centrifuged at 2000 rpm for 10 minutes and then used fresh as described below. […]

IL-1β in PC3-ML cells = experiment: IL-1β silencing by stable shRNA transduction in PC3-ML cells (Western blot, ELISA); type: cell-based, human; conditions: stable transduction of shRNA
Procedure: Mission TRC lentiviral shRNA vectors (Sigma-Aldrich) were used to knock down IL1-β. The following shRNA sequence was used:
Lentiviral particles were used to infect […] cell cultures, overnight in the presence of 8 μg/ml polybrene (Millipore). The successful infected cells were selected for the ability to proliferate in media containing G418 ([…]). The resulting cells were characterized by Western blot analysis using an antibody against IL1β.
as §1
The concentrations of IL-1β and CXCL6 were measured by ELISA as described in the manufacturers' protocols. […] The supernatant was then collected and the protein concentration was measured using Quantikine kits (R&D systems).

[2] = system: PC3-ML bone-metastatic prostate cancer cells; experiment: Animal model of metastasis, intracardiac inoculation of cancer cells; type: in vivo, mouse; conditions: mice inoculated via systemic arterial circulation with shRNA-transduced PC3-ML cells, four weeks post-inoculation
Procedure: Five week-old male immunocompromised mice (CBI 7-SCRF) were obtained from Taconic and housed in a germ-free barrier. At six weeks of age, mice were anesthetized with 100 mg/kg ketamine and 20 mg/kg xylazine and successively inoculated in the left cardiac ventricle with cancer cells (5×10^4 in 100 μl of serum-free DMEM/F12). Cell inoculation was performed using a 30-gauge needle connected to a 1 ml syringe. The delivery of the cell suspension in the systemic blood circulation was validated by the co-injection of blue-fluorescent 10 μm polystyrene beads (Invitrogen-Molecular Probes). Animals were randomly assigned to different experimental groups and sacrificed at specified time points following inoculation. Organs were harvested and prepared as described below and tissue sections inspected blindly for metastatic lesions. The homogeneous and numerically-consistent distribution of the beads in adrenal glands and lungs collected at necropsy and inspected by fluorescence microscopy were used as discrimination criteria for the inclusion of animals in the studies. […]
Bright-field and fluorescent images of skeletal metastases were acquired using an Olympus stereomicroscope coupled to an Olympus DT70 CCD color camera. Digital images were analyzed with ImageJ software and calibrated for measurement by obtaining a pixel to millimeter ratio. […]

[3] = system: production of interleukin-1β; conditions: cited from earlier work
[4] = system: mouse models of acute gout; conditions: in vivo; cited from earlier work
[5] = system: other members of the interleukin-1 family, including interleukin-1 alpha; conditions: cited from earlier work

Anakinra: recombinant, non-glycosylated version of human IL-1 receptor antagonist prepared from genetically modified E. coli
Increase in COX-2 expression in MSCs induced by PC3-ML conditioned medium [1]: completely prevent; also recorded: inhibited

5′-CGGCCAGGATATAACTGACTT-3′ (listed as DNA, chemistry not given here) [shRNA, Mission TRC lentiviral shRNA used to knock down IL1-β in PC3-ML cells]
IL-1β expression in PC3-ML cells after silencing (IL-1β in PC3-ML cells): expression levels lower than PC3-N cells
reduction of size of bone-metastatic tumors [2]: approximately 70%

CSc1ccc(-c2nn(Cc3ccccc3)c(=O)cc2-c2ccc(Cl)cc2)cc1 [K-832, 2-benzyl-5-(4-chlorophenyl)-6-[4-(methylthio)phenyl]-2H-pyridazin-3-one]
inhibitory activity against production of interleukin-1β [3]: high inhibitory activity

XOMA-052: potent anti-IL-1β humanized neutralizing antibody
activity in mouse models of acute gout [4]: active

Canakinumab: human monoclonal antibody targeted at interleukin-1 beta
cross-reactivity with other members of the interleukin-1 family, including interleukin-1 alpha [5]: no cross-reactivity
